Tested on: K-Ras 4B
Assay: Prenylation of K-ras 4B in intact cells (immunoblot, densitometric scanning)
Assay type: cell-based
Conditions: 5 μM hydrolysed lovastatin alone (Compound 1 at 0); NIH-3T3 transfectant overexpressing mutant K-Ras 4B; 18 hours at 37° C.

## CC[C@H](C)C(=O)O[C@H]1C[C@@H](C)C=C2C=C[C@H](C)[C@H](CC[C@@H]3C[C@@H](O)CC(=O)O3)[C@H]21 [Lovastatin, lovastatin]
  % Inhibition OF K-Ras 4B Prenylation: 23%

From patent US20050203163A1, “Farnesyl transferase inhibitors in combination with HMG CoA reductase inhibitors for the treatment of cancer” (Pfizer Inc, priority 1997, published 2005)
